Measured values from ChEMBL document CHEMBL3351708, “Synthesis of new pyridazino[4,5-b]indol-4-ones and pyridazin-3(2H)-one analogs as DYRK1A inhibitors” (Bioorg Med Chem Lett, 2014).

Legend:
[1] = Antiproliferative activity against human HuH7 cells; format: functional, cell-based; conditions: Huh-7
[2] = Antiproliferative activity against human Caco2 cells; format: functional, cell-based; conditions: Caco-2
[3] = biological target: Dual specificity tyrosine-phosphorylation-regulated kinase 1A (Homo sapiens, UniProt Q13627); test: Inhibition of DYRK1A (unknown origin)
[4] = Antiproliferative activity against human fibroblast cells; format: cell-based
[5] = Antiproliferative activity against human HCT116 cells; format: functional, cell-based; conditions: HCT-116
[6] = Antiproliferative activity against human PC3 cells; format: functional, cell-based; conditions: PC-3
[7] = biological target: Cyclin-dependent kinase 5/CDK5 activator 1 (Homo sapiens, UniProt Q00535); test: Inhibition of CDK5/p25 (unknown origin); format: protein-complex assay
[8] = biological target: Glycogen synthase kinase-3 (Homo sapiens, UniProt P49840+P49841); test: Inhibition of GSK3alpha/beta (unknown origin); format: protein assay
[9] = biological target: Phosphatidylinositol 4,5-bisphosphate 3-kinase catalytic subunit alpha isoform (Homo sapiens, UniProt P42336); test: Inhibition of p110alpha (unknown origin)
MDA-MB-231 [10] = test: Antiproliferative activity against human MDA-MB-231 cells; format: functional, cell-based
NCI-H727 = test: Antiproliferative activity against human NCI-H727 cells; format: functional, cell-based
[11] = Antiproliferative activity against human HCT116 cells assessed as decrease in cell growth; format: functional, HCT-116
[12] = Antiproliferative activity against human HuH7 cells assessed as decrease in cell growth; format: functional, Huh-7
MDA-MB-231 [13] = test: Antiproliferative activity against human MDA-MB-231 cells assessed as decrease in cell growth; format: functional

Phosphatidylinositol 4,5-bisphosphate 3-kinase catalytic subunit alpha isoform, sequence (P42336 whole entry, canonical isoform): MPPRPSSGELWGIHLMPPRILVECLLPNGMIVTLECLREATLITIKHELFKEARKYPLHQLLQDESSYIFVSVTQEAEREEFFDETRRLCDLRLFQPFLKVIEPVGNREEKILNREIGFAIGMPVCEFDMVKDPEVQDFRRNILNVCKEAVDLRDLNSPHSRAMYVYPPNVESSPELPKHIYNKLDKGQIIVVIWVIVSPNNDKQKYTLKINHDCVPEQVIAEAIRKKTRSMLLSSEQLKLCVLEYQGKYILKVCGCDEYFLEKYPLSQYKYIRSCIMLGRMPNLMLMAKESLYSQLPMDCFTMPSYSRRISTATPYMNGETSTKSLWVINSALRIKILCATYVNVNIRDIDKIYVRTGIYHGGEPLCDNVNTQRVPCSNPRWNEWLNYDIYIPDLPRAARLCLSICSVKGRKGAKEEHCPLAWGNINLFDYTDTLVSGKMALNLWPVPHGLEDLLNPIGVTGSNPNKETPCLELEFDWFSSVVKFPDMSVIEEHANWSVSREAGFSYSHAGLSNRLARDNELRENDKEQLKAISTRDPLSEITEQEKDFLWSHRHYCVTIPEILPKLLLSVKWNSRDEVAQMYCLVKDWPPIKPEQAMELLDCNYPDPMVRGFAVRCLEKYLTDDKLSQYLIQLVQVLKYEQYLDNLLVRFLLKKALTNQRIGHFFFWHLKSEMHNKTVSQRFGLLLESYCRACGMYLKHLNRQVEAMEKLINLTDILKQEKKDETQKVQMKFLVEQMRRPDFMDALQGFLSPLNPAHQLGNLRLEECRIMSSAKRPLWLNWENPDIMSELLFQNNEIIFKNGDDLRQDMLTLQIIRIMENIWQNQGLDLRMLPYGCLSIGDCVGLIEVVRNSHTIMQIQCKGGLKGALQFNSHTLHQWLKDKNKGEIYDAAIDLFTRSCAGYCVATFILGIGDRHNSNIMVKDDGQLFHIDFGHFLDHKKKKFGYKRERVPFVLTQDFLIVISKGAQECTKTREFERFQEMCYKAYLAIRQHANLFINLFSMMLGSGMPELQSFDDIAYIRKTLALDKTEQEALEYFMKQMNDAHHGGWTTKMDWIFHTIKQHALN
Cyclin-dependent kinase 5/CDK5 activator 1, sequence (Q00535 whole entry): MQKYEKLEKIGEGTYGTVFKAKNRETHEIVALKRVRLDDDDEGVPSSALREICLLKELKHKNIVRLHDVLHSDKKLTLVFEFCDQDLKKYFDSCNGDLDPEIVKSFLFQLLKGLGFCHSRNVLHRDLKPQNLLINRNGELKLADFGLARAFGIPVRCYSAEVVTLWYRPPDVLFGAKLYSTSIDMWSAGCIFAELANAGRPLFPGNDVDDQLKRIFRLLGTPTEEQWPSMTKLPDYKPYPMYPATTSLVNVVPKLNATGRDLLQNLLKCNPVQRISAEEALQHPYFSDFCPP
Cyclin-dependent kinase 5/CDK5 activator 1, sequence (Q15078 whole entry, further chain): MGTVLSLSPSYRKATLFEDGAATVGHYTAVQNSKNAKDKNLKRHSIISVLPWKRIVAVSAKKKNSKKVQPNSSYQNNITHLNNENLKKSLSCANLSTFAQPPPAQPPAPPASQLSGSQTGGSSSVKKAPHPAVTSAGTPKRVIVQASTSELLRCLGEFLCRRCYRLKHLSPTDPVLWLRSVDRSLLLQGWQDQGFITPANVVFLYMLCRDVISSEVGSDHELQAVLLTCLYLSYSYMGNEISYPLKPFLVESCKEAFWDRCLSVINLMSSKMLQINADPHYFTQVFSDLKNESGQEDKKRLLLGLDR

Structure (SMILES)	IC50 [1]	IC50 [2]	IC50 [3]	IC50 [4]	IC50 [5]	IC50 [6]	IC50 [7]	IC50 [8]	IC50 [9]	IC50 (MDA-MB-231 [10])	IC50 (NCI-H727)	inhibition (INH) [11]	inhibition (INH) [12]	inhibition (INH) (MDA-MB-231 [13])
COc1ccc2[nH]c3c(=O)[nH]nc(C)c3c2c1	3 µM	8 µM	5 µM	20 µM	15 µM	7 µM	> 10 µM	> 10 µM						
COc1ccc2[nH]c3c(=O)[nH]nc(-c4ccccc4)c3c2c1			> 10 µM					1.3 µM	> 10 µM					
COc1ccc(-c2n[nH]c(=O)c3[nH]c4ccc(OC)cc4c23)cc1	> 25 µM	> 25 µM	1.5 µM	> 25 µM	> 25 µM	> 25 µM	> 10 µM	1.4 µM	> 10 µM	> 25 µM	> 25 µM			
COc1ccc2[nH]c3c(=O)[nH]nc(-c4ccc(C(F)(F)F)cc4)c3c2c1	> 25 µM	> 25 µM	> 10 µM	> 25 µM	> 25 µM	> 25 µM	> 10 µM	> 10 µM	6.9 µM	> 25 µM	> 25 µM			
COc1ccc2[nH]c3c(=O)[nH]nc(-c4ccco4)c3c2c1	0.25 µM	0.6 µM	0.22 µM	> 25 µM	3 µM	> 25 µM	> 10 µM	> 10 µM	> 10 µM	0.3 µM	> 25 µM	50%	50%	50%
COc1ccc(Nc2cc(C)n[nH]c2=O)cc1			> 10 µM				> 10 µM	> 10 µM						
COc1ccc(Nc2cc(-c3ccccc3)n[nH]c2=O)cc1	> 25 µM	> 25 µM	> 10 µM	> 25 µM	> 25 µM	> 25 µM	> 10 µM	> 10 µM	> 10 µM	> 25 µM	> 25 µM			
COc1ccc(Nc2cc(-c3ccc(OC)cc3)n[nH]c2=O)cc1			5.1 µM				> 10 µM	2.5 µM						
COc1ccc(Nc2cc(-c3ccco3)n[nH]c2=O)cc1	> 25 µM	> 25 µM	> 10 µM	> 25 µM	> 25 µM	> 25 µM	> 10 µM	> 10 µM	> 10 µM	> 25 µM	> 25 µM			
COc1ccc(Nc2cc(-c3ccncc3)n[nH]c2=O)cc1	> 25 µM	> 25 µM	0.61 µM	> 25 µM	> 25 µM	> 25 µM	> 10 µM	9.6 µM	> 10 µM	> 25 µM	> 25 µM			
